Test results reported in article PMC8294009, “Genetically-encoded discovery of proteolytically stable bicyclic inhibitors for morphogen NODAL” (Chemical Science, 2021).
*1 amine or outer side, *2 acyl side, *3 side chain or, on linkers, in order; H or OH if unused. Where a SMILES comes first, the peptide text is derived from it. Bridges are numbered along the chain shown (N, C = ends). S(p-C6F4)2 = Fc1c(F)c([*:1])c(F)c(F)c1Sc1c(F)c(F)c([*:2])c(F)c1F; X1 = O=C(C=NOCCCCCCOc1cc(C[*:2])cc(C[*:3])c1)[*:1]

Columns and labels:
[1] = tested on: TYK-nu-NODAL cells; type: cell-based; settings: human, 72 h, 10 µM
Experimental: 3.9. General protocol P19 Cell Culture
P19 Cell were obtained from ATCC cell bank and culture in Alpha Minimum Essential Medium with ribonucleotide and […] with 7.5% bovine calf serum and 2.5% fetal bovine serum at 37 °C with 5% CO2 supplementation.
3.10. Inhibition of pSMAD assay with P19 Cell […]
TYK-nu ovarian cancer cells were obtained from JCRB cell bank and cultured in Eagle’s minimal essential medium with 10 % fetal calf serum (Gibco/Thermo Fisher; Waltham, Massachusetts, USA) at 37 °C with 5% CO2 supplementation. To express the constitutive NODAL, a plasmid vector for human NODAL open reading frame (not including the stop codon) was cloned into pCMV6-Entry vector in frame with a tandem MYCDYK (FLAG) tag (Origene Cat. # RC211302). […]
Cells were seeded in three 96 wells plates with 600 cells/well or 6000 cells/well and grow in full media with G418 at 100 μg/mL O/N. The next day the media was changed to contain 19d peptide (10 µM, 1 µM and 0.1 µM) and without G418. Cells viability was measured every 24 hours with CellTiter-Glo® Luminescent Cell Viability Assay (Promega Cat. # G7572) over the course of 72

[2] = in vitro; type: in vitro ADME; settings: mouse, serum
Experimental: 4. Proteolytic Stability Methods
4.1. Protocol for measurement of proteolytic stability in cell assay: […]
precipitate any proteins.
4.2. Protocol for measurement of proteolytic stability in PronaseTM :
The mixture was vortexed and […]
peptide solution (from 10 mM stock). The mixture was vortexed and incubated at 37 °C. At […]
precipitate the serum protein.

[3] = tested on: rhNODAL-induced phosphorylation of SMAD2 in P19 cells; test: Inhibition of pSMAD assay with P19 cells (western blot of p-SMAD2); type: cell-based; settings: control inhibitor, concentration not given, rhNODAL 100 ng mL^−1, 1 hour
Source text: 3.6. Processing of Illumina data
The Gzip compressed FASTQ files were downloaded from BaseSpace™ Sequence Hub. The files were converted into tables of DNA sequences and their counts per experiment. Briefly, FASTQ files were parsed based on unique multiplexing barcodes within the reads discarding any reads that contained a low-quality score. Mapping the forward (F) and reverse […] barcoding regions, mapping of F and R priming regions allowing no more than one base substitution each and F-R read alignment allowing no mismatches between F and R reads yielded DNA sequences located between the priming regions. The files with DNA reads, raw counts, and mapped peptide modifications were uploaded to http://48hd.cloud/ server. Each experiment has a unique alphanumeric name (e.g., 20181108-16TSooPA-YW) and unique static URL:
Un- http://48hd.cloud/file/23 https://48hd.cloud/file/2 https://48hd.cloud/file/2 […]
TSL-6 https://48hd.cloud/file/2 https://48hd.cloud/file/2 https://48hd.cloud/file/2 […]
Elution https://48hd.cloud/file/2 https://48hd.cloud/file/2 https://48hd.cloud/file/2 […]
Amplificati https://48hd.cloud/file/2 https://48hd.cloud/file/2 https://48hd.cloud/file/2 […]
3.7. General protocol for protein extraction
All samples in the protein extraction protocol were done on ice. […]

[4] = in vitro; settings: Streptomyces griseus, isolated enzyme pronase, pH 7.4
Experimental: (§1) In a 600 L Eppendorf tube, we combined 196 L PBS (pH 7.4), 2 L of corresponding peptide
(§2) solution (from 10 mM stock) and 2 L of 0.1 mg/mL PronaseTM. The mixture was vortexed and
(§3) incubated at 37 °C. At indicated time points, 10 L of the solution was sampled, quenched with
(§4) 190 L of 50% aq. CH3CN and maintained at 4 °C until analysis by LCMS.

[5] = tested on: Pronase™; test: Proteolytic stability in Pronase; settings: 5 hours, 37 °C
Experimental: as §1, §2, §3, §4

Compound: C[C@@H]1NC(=O)[C@H](CCCNC(=N)N)NC(=O)[C@H](CCCCN)NC(=O)[C@@H]2CSCc3cc(cc(c3)OCCCCCCON=CC(=O)N[C@@H](Cc3ccc(O)cc3)C(=O)N2)CSC[C@@H](C(N)=O)NC(=O)[C@H](CC(N)=O)NC(=O)[C@H](CCCCN)NC(=O)[C@H](Cc2c[nH]cn2)NC1=O [19b, TSL-[S]Y[C]KRAHKN[C]] (YCKRAHKNC-NH2; linker N-2-9 via X1)
- viability of TYK-nu-NODAL cells compared to untreated TYK-nu-NODAL cells [1]: 23%
- remaining at 72 h [2]: 53%

Compound: NC(=O)c1ccc(-c2nc(-c3ccc4c(c3)OCO4)c(-c3ccccn3)[nH]2)cc1 [SB431542]
- inhibition of rhNODAL-induced phosphorylation of SMAD2 [3]: inhibited

Compound: CC(C)C[C@@H]1NC(=O)[C@H](Cc2ccc(O)cc2)NC(=O)[C@@H]2CSCc3cc(cc(c3)OCCCCCCON=CC(=O)N[C@@H](Cc3c[nH]c4ccccc34)C(=O)N[C@@H](CC(=O)O)C(=O)N[C@@H](Cc3ccc(O)cc3)C(=O)N[C@@H](CCCNC(=N)N)C(=O)N[C@@H](CCC(=O)O)C(=O)N2)CSC[C@@H](C(N)=O)NC(=O)[C@H](CCC(=O)O)NC1=O [TSL-6-SWDYRECYLEC] (WDYRECYLEC-NH2; linker N-6-10 via X1)
- remaining at 5 h, 100 µM [4]: 68 ± 14%

Compound: CC[C@H](C)[C@H](NC(=O)[C@@H](N)CO)C(=O)N[C@H]1CSc2c(F)c(F)c(c(F)c2F)Sc2c(F)c(F)c(c(F)c2F)SC[C@@H](C(=O)NCC(=O)NCC(=O)NCC(N)=O)NC(=O)[C@H](Cc2ccccc2)NC(=O)[C@H](Cc2ccccc2)NC(=O)[C@H](CCCNC(=N)N)NC1=O [PFS-SICRFFCGGG] (H-SICRFFCGGG-NH2; linker 3-7 via S(p-C6F4)2)
- stability in Pronase™ (in words) [5]: lower stability than bicycle TSL-3-SICRFFCGGG
